Where a name gives a salt, the structure may show the parent alone.
Legend:
[1] = test system: guinea pig respiratory tract; assay: Antitussive action using the guinea pig respiratory tract stimulation method; assay type: in vivo, male Hartley guinea pigs; conditions: for ED50: Cavia porcellus, sc; for No. of Animals in which Coughing was Suppressed/No. of Animals Tested: s.c.
Description: Evaluation of Antitussive Action Using the Guinea Pig Respiratory Tract Stimulation Method
Male Hartley guinea pigs having body weights of 330-380 g were used in this test in groups of 5 animals each. The animals were immobilized in the supine position under mild anesthesia by intraperitoneal administration of 15 mg/kg of sodium pentobarbital. An incision was made in the necks of the animals to expose the respiratory tract. A small hole was opened in the exposed respiratory tract, and stimulating hairs were inserted to a depth of roughly 3 cm and at an angle of 30 degrees to the respiratory tract through the opened hole to provide a stimulus to the inner wall of the respiratory tract. The animals were then examined for the presence of coughing. […] The test drug was administered subcutaneously, and stimuli were provided two times each 15, 30, 60 and 120 minutes after administration.

[2] = biological target: T1, μ receptor (Mus musculus, UniProt P42866); assay: Opioid activity test using an extracted mouse vas deferens preparation, Ke with naloxone; design: species or system male ddy mouse; conditions: naloxone added
T1 construct: naloxone as mu antagonist (printed 'agonist')

[3] = biological target: T2, κ receptor (Mus musculus, UniProt P33534); assay: Opioid activity test using an extracted mouse vas deferens preparation, Ke with norBNI; design: species or system male ddy mouse; conditions: for receptor selectivity of agonist (κ): in words; for Ke, norBNI: κ, norBNI added
T2 construct: from tissue; host or cells: mouse (male ddy) vas deferens

[4] = biological target: T3, δ receptor (Mus musculus, UniProt P32300); design: species or system male ddy mouse; conditions: mouse vas deferens, δ, NTI added
T3 construct: The vas deferens extracted from the animal was suspended in a Magnus tube; from tissue; host or cells: mouse (male ddy) vas deferens

[5] = test system: nerve cells in the region of the hippocampus CA1; assay: Delayed neuronal death protective action (gerbil transient ischemia model, hippocampus CA1 nerve cell count); assay type: in vivo, gerbils; conditions: s.c.; for No. of Residual Nerve Cells: 1 week after ligation; for Suppression of defluxion of brain nerve cells caused by ischemia / cerebro-neuroprotective activity (in words): gerbils
Description: Those compounds that provide protection from and suppress delayed neuronal death described in Example 238 are considered to be promising as preventive and therapeutic agents for ischemic brain disorders, brain nerve cell disorders and dementia, which are problems that the present invention is attempting to solve. The pharmacological activity of the compounds of the present invention was evaluated in the manner below using gerbils for the animal model.
A midline incision was made in gerbils having body weights of 50-70 g under ether anesthesia. Blood flow through the carotid arteries on both sides was interrupted to create an ischemic state by ligating the vessels for 5 minutes. The test compound was administered subcutaneously either 30 minutes or 1 hour prior to ligation ischemia, and the rectal temperature of the animals was controlled to 37±2° C. using a heating pad or heater starting 5 minutes before to 30 minutes after ligation ischemia. 1 week after ligation, 4% neutral buffered formalin was perfused from the heart throughout the body followed by extraction of the brain. After post-fixing the extracted brain in the same solution, the tissue was prepared into sections after embedding in paraffin. The sections were stained with hematoxylin and eosin stain, and the number of nerve cells in the region of the hippocampus CA1 over a width of 1 mm to the left and right was counted. The total number of nerve cells on the right and left sides was then used for evaluation.

[6] = test system: extracted mouse vas deferens preparation; assay: Opioid activity test using an extracted mouse vas deferens preparation (suppression of electrically induced contractions); design: species or system male ddy mouse; conditions: electrical stimulus 0.1 Hz, 37° C.
Procedure, shortened: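 Male ddY mouse vas deferens in Krebs-Henseleit at 37° C, 5% CO2/95% O2, field-stimulated at 0.1 Hz, 5.0 ms; isometric contractions recorded. After adding naloxone, NTI or norBNI, test compound was added cumulatively after ~20 min; Ke derived from the difference in agonist efficacies.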

[7] = test system: acetic acid-induced writhing in ddy mice; assay: animal or person; assay type: in vivo, 5 week old ddy mice; conditions: Mus musculus, sc, s.c. 15 minutes before acetic acid, read-out: ED50
Description: 5 week old ddy mice were used in this test. After intraperitoneal administration of 0.1 ml of 0.6% aqueous acetic acid per 10 g of body weight, the number of writhing reactions that occurred in 10 minutes starting 10 minutes after administration was evaluated for the indicator. The test drug was administered subcutaneously into the backs of the animals 15 minutes before administration of acetic acid.

[8] = test system: cultured nerve cells (cerebral cortex); assay: cells; conditions: Rattus norvegicus, Cerebral cortex neuron, 24 h, read-out: ED50 (protection against glutamic acid toxicity)
[9] = test system: cultured nerve cells (cerebral cortex); conditions: 10 mM glutamic acid, 24 hours
[10] = Diuretic action (urine output for 5 hours after physiological saline loading in rats); assay type: in vivo, male Wistar rats; conditions: Rattus norvegicus, sc, 5 hours after saline 20 ml/kg p.o.; for ED (200% urine output): dose giving urine output of 200 (non-dosed group = 100); for ED (500% urine output): dose giving urine output of 500 (non-dosed group = 100)
Procedure, shortened: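 Male Wistar rats (7-8 weeks), water withheld 1 h, bladder emptied, drug given subcutaneously; 30 min later 20 ml/kg saline orally. Urine collected 5 h after saline loading in metabolic cages; ED200 and ED500 are doses giving urine output of 200 and 500 relative to non-dosed group at 100.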

[11] = test system: μ receptor; assay: Opioid activity test using an extracted guinea pig ileum preparation, Ke with naloxone; design: species or system male Hartley guinea pig; conditions: naloxone added
Description: (§1) A male Hartley guinea pig was used in this test. After sacrificing the guinea pig and extracting the ileum, the lumen was washed with nutrient solution and only the longitudinal muscle was isolated. This longitudinal muscle was suspended in a Magnus tube filled with Krebes-Henseleit solution (NaCl 118 mM; KCl 4.7 mM; CaCl2 2.5 mM; KH2 PO4 1.2 mM; NaHCO3 25 mM; MgSO4 1.2 mM; Glucose 10 mM) warmed to 37° C. and ventilated with 5% carbon dioxide and 95% oxygen. Electrical stimulus was performed at 0.1 Hz for 5.0 ms by means of ring-shaped platinum electrodes located above and below. Tissue contractions were recorded on a polygraph using an isometric transducer.
(§2) After adequately washing with nutrient solution and the contraction reaction stabilized, the μ agonist, naloxone, or the κ agonist, norBNI, was added after which the test compound was again cumulatively added after roughly 20 minutes. The Ke value was calculated using the following calculation formula from the difference in the efficacies of both agonists.
(§3) Ke=[Conc. of added agonist]/(IC50 ratio-1)
(§4) IC50 ratio=IC50 in the presence of agonist/IC50 in the absence of agonist

[12] = biological target: T4, κ receptor (Cavia porcellus, UniProt P41144); assay: Opioid activity test using an extracted guinea pig ileum preparation, Ke with norBNI; design: species or system male Hartley guinea pig; conditions: norBNI added
T4 construct: After sacrificing the guinea pig and extracting the ileum; from tissue; host or cells: guinea pig (male Hartley) ileum, longitudinal muscle
Description: as §1, §2, §3, §4

[13] = test system: extracted guinea pig ileum preparation; assay: Opioid activity test using an extracted guinea pig ileum preparation (suppression of electrically induced contractions); design: species or system male Hartley guinea pig; conditions: Cavia porcellus, electrical stimulus 0.1 Hz, 37° C.
Description: as §1, §2

T2 sequence (P33534 whole entry): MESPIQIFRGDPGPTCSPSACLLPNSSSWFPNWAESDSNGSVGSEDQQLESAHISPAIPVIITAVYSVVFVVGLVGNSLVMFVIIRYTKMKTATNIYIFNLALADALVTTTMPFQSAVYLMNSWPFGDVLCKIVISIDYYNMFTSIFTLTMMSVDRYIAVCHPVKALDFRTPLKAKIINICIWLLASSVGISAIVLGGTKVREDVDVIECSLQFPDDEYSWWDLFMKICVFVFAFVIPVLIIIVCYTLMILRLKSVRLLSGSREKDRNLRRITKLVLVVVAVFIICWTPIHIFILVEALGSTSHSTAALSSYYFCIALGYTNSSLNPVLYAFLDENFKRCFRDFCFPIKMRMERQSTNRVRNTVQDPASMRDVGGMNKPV
T3 sequence (P32300 whole entry): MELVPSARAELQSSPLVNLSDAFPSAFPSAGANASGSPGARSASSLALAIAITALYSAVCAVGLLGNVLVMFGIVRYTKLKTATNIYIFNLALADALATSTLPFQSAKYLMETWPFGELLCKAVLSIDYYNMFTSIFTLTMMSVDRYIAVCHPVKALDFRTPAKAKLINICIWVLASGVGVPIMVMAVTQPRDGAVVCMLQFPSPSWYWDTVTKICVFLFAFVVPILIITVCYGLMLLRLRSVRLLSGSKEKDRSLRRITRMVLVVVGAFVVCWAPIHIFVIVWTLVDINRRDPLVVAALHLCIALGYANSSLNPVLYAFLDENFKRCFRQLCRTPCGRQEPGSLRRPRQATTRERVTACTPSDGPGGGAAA
T1 sequence (P42866 whole entry): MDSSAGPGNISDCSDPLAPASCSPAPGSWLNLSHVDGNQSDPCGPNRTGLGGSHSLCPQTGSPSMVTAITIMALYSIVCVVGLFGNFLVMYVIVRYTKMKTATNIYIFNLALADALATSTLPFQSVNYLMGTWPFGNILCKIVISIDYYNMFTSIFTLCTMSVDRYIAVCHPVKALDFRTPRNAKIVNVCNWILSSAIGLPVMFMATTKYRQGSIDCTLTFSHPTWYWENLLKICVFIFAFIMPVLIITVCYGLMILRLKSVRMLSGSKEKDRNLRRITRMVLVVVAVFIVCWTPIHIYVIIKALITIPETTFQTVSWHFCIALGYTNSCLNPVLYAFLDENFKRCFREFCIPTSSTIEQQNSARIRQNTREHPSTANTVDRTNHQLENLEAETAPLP
T4 sequence (P41144 whole entry): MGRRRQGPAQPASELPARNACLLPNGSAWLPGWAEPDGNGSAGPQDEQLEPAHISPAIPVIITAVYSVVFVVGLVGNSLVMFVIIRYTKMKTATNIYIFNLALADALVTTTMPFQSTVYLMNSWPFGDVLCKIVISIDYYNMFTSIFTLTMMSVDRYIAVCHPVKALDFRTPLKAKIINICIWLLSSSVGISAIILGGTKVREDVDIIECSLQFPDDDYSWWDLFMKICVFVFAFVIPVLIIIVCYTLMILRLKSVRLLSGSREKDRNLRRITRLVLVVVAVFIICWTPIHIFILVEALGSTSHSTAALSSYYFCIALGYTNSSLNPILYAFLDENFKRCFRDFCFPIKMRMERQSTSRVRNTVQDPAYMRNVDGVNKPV

Compound	ED50 [1] [µg/kg]	No. of Animals in which Coughing was Suppressed/No. of Animals Tested ([1]; 1 μg/kg)	No. of Animals in which Coughing was Suppressed/No. of Animals Tested ([1]; 3 μg/kg)	No. of Animals in which Coughing was Suppressed/No. of Animals Tested ([1]; 30 μg/kg)	Ke, Naloxone [2] [nM]	receptor selectivity of agonist (κ) [3]	Ke, norBNI [3] [nM]	Ke, NTI [4] [nM]	Suppression of defluxion of brain nerve cells caused by ischemia / cerebro-neuroprotective activity (in words) [5]	IC50 [6] [nM]	ED50 [7] [µg/kg]	EC50 [8] [nM]	Protective action against cytotoxicity caused by glutamic acid (in words) [9]	ED (200% urine output) [10] [µg/kg]	ED (500% urine output) [10] [µg/kg]	other results
Cc1cccc(/C=C/C(=O)N(C)[C@@H]2CC[C@@]3(O)[C@H]4Cc5ccc(O)c6c5[C@@]3(CCN4CC3CC3)[C@H]2O6)c1 [Compound 69, 17-cyclopropylmethyl-3,14β-dihydroxy-4,5α-epoxy-6β-(N-methyl-3-methylcinnamamido)morphinan.cndot.hydrochloride]	12.5	1/5	1/5	4/5	1780	selective agonists for κ receptors	1.95	64.5	significantly suppress defluxion of brain nerve cells caused by ischemia	0.32	4.9					No. of Residual Nerve Cells ([5]; 0.03 mg/kg, 30 minutes before ischemia): 12.4 ± 3.0; No. of Residual Nerve Cells ([5]; 0.3 mg/kg, 30 minutes before ischemia): 43.3 ± 19.1; No. of Residual Nerve Cells ([5]; 3 mg/kg, 30 minutes before ischemia): 178.3 ± 30.4
CN(C(=O)/C=C/c1cccc(C(F)(F)F)c1)[C@@H]1CC[C@@]2(O)[C@H]3Cc4ccc(O)c5c4[C@@]2(CCN3CC2CC2)[C@H]1O5 [Compound 60, 17-cyclopropylmethyl-3,14β-dihydroxy-4,5α-epoxy-6β-(N-methyl-3-trifluoromethylcinnamamido)morphinan.cndot.tartrate]	2.6	1/5	3/5	5/5		selective agonists for κ receptors	3.20	291	significantly suppress defluxion of brain nerve cells caused by ischemia	0.468	4.6	1310	clearly demonstrated action that protects nerve cells from cytotoxicity caused by glutamic acid	14.3	1130	No. of Residual Nerve Cells ([5]; 0.03 mg/kg, 1 hour before ischemia): 52.1 ± 14.8; No. of Residual Nerve Cells ([5]; 0.3 mg/kg, 1 hour before ischemia): 148.3 ± 28.5; No. of Residual Nerve Cells ([5]; 3 mg/kg, 1 hour before ischemia): 284.5 ± 7.1
CN(C(=O)Cc1ccc(Cl)c(Cl)c1)[C@H]1CC[C@@]2(O)[C@H]3Cc4ccc(O)c5c4[C@@]2(CCN3CC2CC2)[C@H]1O5 [Compound 1, 17-cyclopropylmethyl-4,5α-epoxy-3,14β-dihydroxy-6α-(N-methyl-3,4-dichlorophenylacetamido)morphinan]					53	selective agonists for κ receptors	0.548	17.3		0.395	17	500	clearly demonstrated action that protects nerve cells from cytotoxicity caused by glutamic acid	2.7	45.7	Ke, Naloxone [11]: 650 nM; Ke, norBNI [12]: 0.16 nM; IC50 [13]: 0.026 nM
CN(C(=O)/C=C/c1ccoc1)[C@@H]1CC[C@@]2(O)[C@H]3Cc4ccc(O)c5c4[C@@]2(CCN3CC2CC2)[C@H]1O5 [Compound 61, 17-cyclopropylmethyl-3,14β-dihydroxy-4,5α-epoxy-6β-[N-methyl-trans-3-(3-furyl)acrylamido]morphinan.cndot.tartrate]	3.7						0.164			0.42	4.4	16300	clearly demonstrated action that protects nerve cells from cytotoxicity caused by glutamic acid	3.2	157	

— patent US6177438A, “Morphinan derivatives and pharmaceutical use thereof” (priority 1993, dated 2001)
